pIC50: −log10 of the molar value.
Molecular target: VHL (Homo sapiens (Human), UniProt P40337)
Assay: VHL fluorescence polarization (FP) competition assay
Format: binding

pIC50 (1% in DMSO)	pIC50 (10% in DMSO)	VHL FP Assay IC50 (1% in DMSO)	VHL FP Assay IC50 (10% in DMSO)	Structure (SMILES)
4.77	4.52			Cc1ncsc1-c1ccc(CNC(=O)[C@@H]2C[C@@H](O)CN2C(=O)c2ccccc2)cc1 [Example 64, (2S,4R)-1-benzoyl-4-hydroxy-N-(4-(4-methylthiazol-5-yl)benzyl)pyrrolidine-2-carboxamide]
6.20	6.24			Cc1ncsc1-c1ccc(CNC(=O)[C@@H]2C[C@@H](O)CN2C(=O)[C@@H](N2Cc3ccccc3C2=O)C(C)(C)C)cc1 [Example 65, (2S,4R)-1-((S)-3,3-dimethyl-2-(1-oxoisoindolin-2-yl)butanoyl)-4-hydroxy-N-(4-(4-methylthiazol-5-yl)benzyl)pyrrolidine-2-carboxamide]
		Not Active	Not Active	COc1cccc(C(=O)N2C[C@H](O)CC2(C)C(=O)NCc2ccc(-c3scnc3C)cc2)c1 (stereo partly drawn) [Example 66, (4R)-4-hydroxy-1-(3-methoxybenzoyl)-2-methyl-N-(4-(4-methylthiazol-5-yl)benzyl)pyrrolidine-2-carboxamide]
		Not Active	Not Active	CCC1(C(=O)NCc2ccc(-c3scnc3C)cc2)C[C@@H](O)CN1C(=O)c1cccc(OC)c1 (stereo partly drawn) [Example 67, (4R)-2-ethyl-4-hydroxy-1-(3-methoxybenzoyl)-N-(4-(4-methylthiazol-5-yl)benzyl)pyrrolidine-2-carboxamide]
6.01	6.18			Cc1ncsc1-c1ccc(CNC(=O)[C@@H]2C[C@@H](O)CN2C(=O)[C@H](C(C)C)N2Cc3c(Cl)cccc3C2=O)cc1 [Example 68]
5.84	5.37			CC(=O)N[C@H](C(=O)N1C[C@H](O)C[C@H]1C(=O)NCc1ccc(-c2scnc2C)cc1)C(C)C [Example 69, (2S,4R)-1-((S)-2-acetamido-3-methylbutanoyl)-4-hydroxy-N-(4-(4-methylthiazol-5-yl)benzyl)pyrrolidine-2-carboxamide]
5.79	5.86			Cc1ncsc1-c1ccc(CNC(=O)[C@@H]2C[C@@H](O)CN2C(=O)[C@@H](NC(=O)c2cccc(C#N)c2)C(C)(C)C)cc1 [Example 71, (2S,4R)-1-((S)-2-(3-cyanobenzamido)-3,3-dimethylbutanoyl)-4-hydroxy-N-(4-(4-methylthiazol-5-yl)benzyl)pyrrolidine-2-carboxamide]
6.07	5.99			COc1ccc2c(c1)CN([C@H](C(=O)N1C[C@H](O)C[C@H]1C(=O)NCc1ccc(-c3scnc3C)cc1)C(C)C)C2=O [Example 72, (2S,4R)-4-hydroxy-1-((S)-2-(5-methoxy-1-oxoisoindolin-2-yl)-3-methylbutanoyl)-N-(4-(4-methylthiazol-5-yl)benzyl)pyrrolidine-2-carboxamide]
5.88	5.92			Cc1ncsc1-c1ccc(CNC(=O)[C@@H]2C[C@@H](O)CN2C(=O)[C@H](C(C)C)N2Cc3cc(Cl)ccc3C2=O)cc1 [Example 73, (2S,4R)-1-((S)-2-(5-chloro-1-oxoisoindolin-2-yl)-3-methylbutanoyl)-4-hydroxy-N-(4-(4-methylthiazol-5-yl)benzyl)pyrrolidine-2-carboxamide]
6.35	6.58			Cc1ncsc1-c1ccc(CNC(=O)[C@@H]2C[C@@H](O)CN2C(=O)[C@H](C(C)C)N2Cc3ccc(Cl)cc3C2=O)cc1 [Example 74, (2S,4R)-1-((S)-2-(6-chloro-1-oxoisoindolin-2-yl)-3-methylbutanoyl)-4-hydroxy-N-(4-(4-methylthiazol-5-yl)benzyl)pyrrolidine-2-carboxamide]

The remaining lines, values behind:

Structure (SMILES)	pIC50 (1% in DMSO)	pIC50 (10% in DMSO)	VHL FP Assay IC50 (1% in DMSO)	VHL FP Assay IC50 (10% in DMSO)
Cc1ncsc1-c1ccc(CNC(=O)[C@@H]2C[C@@H](O)CN2C(=O)C2(N3Cc4ccccc4C3=O)CCC2)cc1 [Example 55, (2S,4R)-4-hydroxy-N-(4-(4-methylthiazol-5-yl)benzyl)-1-(1-(1-oxoisoindolin-2-yl)cyclobutanecarbonyl)pyrrolidine-2-carboxamide]	3.94	3.34		
Cc1ncsc1-c1ccc(CNC(=O)[C@@H]2C[C@@H](O)CN2C(=O)[C@@H](NC(=O)CCC(C)C)C2CCCCC2)cc1 [Example 56, (2S,4R)-1-((S)-2-cyclohexyl-2-(4-methylpentanamido)acetyl)-4-hydroxy-N-(4-(4-methylthiazol-5-yl)benzyl)pyrrolidine-2-carboxamide]	6.06	5.83		
COCCCc1ccc2c(c1)CN([C@H](C(=O)N1C[C@H](O)C[C@H]1C(=O)NCc1ccc(-c3scnc3C)cc1)C(C)C)C2=O [Example 57, (2S,4R)-4-hydroxy-1-((S)-2-(5-(3-methoxypropyl)-1-oxoisoindolin-2-yl)-3-methylbutanoyl)-N-(4-(4-methylthiazol-5-yl)benzyl)pyrrolidine-2-carboxamide]	6.14	5.85		
Cc1ncsc1-c1ccc(CNC(=O)[C@@H]2C[C@@H](O)CN2C(=O)[C@H](c2cccs2)N2Cc3ccccc3C2=O)cc1 [Example 58, (2S,4R)-4-hydroxy-N-(4-(4-methylthiazol-5-yl)benzyl)-1-((R)-2-(1-oxoisoindolin-2-yl)-2-(thiophen-2-yl)acetyl)pyrrolidine-2-carboxamide]	4.49	4.58		
Cc1ncsc1-c1ccc(CNC(=O)[C@@H]2C[C@@H](O)CN2C(=O)[C@H](CS)NC(=O)CCC(C)C)cc1 [Example 59, (2S,4R)-4-hydroxy-1-((R)-3-mercapto-2-(4-methylpentanamido)propanoyl)-N-(4-(4-methylthiazol-5-yl)benzyl)pyrrolidine-2-carboxamide]	5.85	5.43		
Cc1ncsc1-c1ccc(CNC(=O)[C@H]2C[C@H](O)CN2C(=O)[C@@H](CSSC[C@H](NC(=O)CCC(C)C)C(=O)N2C[C@H](O)C[C@H]2C(=O)NCc2ccc(-c3scnc3C)cc2)NC(=O)CCC(C)C)cc1 [Example 60, (2S,4R)-4-hydroxy-1-((R)-3-(((S)-3-((2R,4S)-4-hydroxy-2-(4-(4-methylthiazol-5-yl)benzylcarbamoyl)pyrrolidin-1-yl)-2-(4-methylpentanamido)-3-oxopropyl)disulfanyl)-2-(4-methylpentanamido)propanoyl)-N-(4-(4-methylthiazol-5-yl)benzyl)pyrrolidine-2-carboxamide]	5.84	6.53		
Cc1ncsc1-c1ccc(CNC(=O)[C@@H]2CC(=O)CN2C(=O)[C@H](C(C)C)N2Cc3ccccc3C2=O)cc1 [Example 61, (S)-1-((S)-3-methyl-2-(1-oxoisoindolin-2-yl)butanoyl)-N-(4-(4-methylthiazol-5-yl)benzyl)-4-oxopyrrolidine-2-carboxamide]			Not Active	Not Active
Cc1ncsc1-c1ccc(CNC(=O)[C@@H]2C[C@](C)(O)CN2C(=O)[C@H](C(C)C)N2Cc3ccccc3C2=O)cc1 [Example 62, (2S,4S)-4-hydroxy-4-methyl-1-((S)-3-methyl-2-(1-oxoisoindolin-2-yl)butanoyl)-N-(4-(4-methylthiazol-5-yl)benzyl)pyrrolidine-2-carboxamide]			Not Active	Not Active
COc1cccc(C(=O)N2C[C@H](O)C[C@H]2C(=O)NCc2ccc(-c3scnc3C)cc2)c1 [Example 63, (2S,4R)-4-hydroxy-1-(3-methoxybenzoyl)-N-(4-(4-methylthiazol-5-yl)benzyl)pyrrolidine-2-carboxamide]	4.23	4.28		
